Experimental data taken from patent US20140045908A1, “HSP90 INHIBITORY COMPOUNDS IN TREATING JAK/STAT SIGNALING-MEDIATED CANCERS” (SYNTA PHARMACEUTICALS CORP., priority 2011, published 2014).

What was measured:
DU145 cells = assay: Cell viability assay (AlamarBlue, 72 h); format: cell-based, human
Method: (§1) All cell lines were obtained from the ATCC (Rockville, Md., USA), with the exception of SET-2 cells which were purchased from the German Collection of Microorganisms and Cell Cultures (DSMZ, Germany). Cells were maintained and cultured according to standard techniques at 37° C. in 5% (v/v) CO2 using culture medium recommended by the supplier.
(§2) Cells were grown in 96-well plates based on optimal growth rates determined empirically for each line. Twenty-four hours after plating, cells were dosed with the indicated compound or DMSO (0.3%) for 72 h. AlamarBlue (Invitrogen, Carlsbad, Calif., USA) was added (10% v/v) to the cells, and the plates were incubated for 3 h and subjected to fluorescence detection (Ex=545 nm, Em=600 nm) in a SpectraMax Plus 384 microplate reader (Molecular Devices, Sunnyvale, Calif., USA). Data are normalized to percent of control, with IC50 values based on a four-parameter logistic dose response curve (model 205) using XLfit version 5.1 from IDBS (Guildford, U.K.).

HEL92.1.7 cells = assay: Cell viability assay (AlamarBlue, 72 h); format: cell-based, human
Method: as §1, §2

MV4-11 cells = assay: Cell viability assay (AlamarBlue, 72 h); format: cell-based, human
Method: as §1, §2

SET-2 cells = assay: Cell viability assay (AlamarBlue, 72 h); format: cell-based, human
Method: as §1, §2

[1] = test system: SET-2, HEL92.1.7, MV4-11, NCI-H1975 and DU145 cells; assay: Cell viability assay (AlamarBlue, 72 h), group of JAK/STAT-dependent tumor cell lines; format: cell-based, human
Method: SET-2, HEL92.1.7, MV4-11, NCI-H1975 and DU145 cells were treated with ganetespib or 17-AAG over a broad dose range (0.0001 to 1 μM) for 72 h and cell viability assessed by Alamar blue staining.
as §1, §2

[2] = test system: JAK2 dependent signaling in HEL92.1.7 cells; assay: Western blot of JAK/STAT signaling in HEL92.1.7 cells; format: cell-based, human
Method: FIG. 2 compares the more durable ganetespib durable inhibition of JAK/STAT signaling to P6. HEL92.1.7 cells were cultured in the presence of 250 nM Ganetespib or 1000 nM P6 and harvested at the indicated time points. The levels of JAK2, phosphorylated and total STAT3 and STAT5, phospho-AKT, phospho-ERK and GAPDH were determined by western blot.
(§3) Cells were disrupted in lysis buffer (CST) and solubilized in 2% SDS. Xenograft tumors (average volume of 100-200 mm3) were excised, cut in half, and flash frozen in liquid nitrogen. Each tumor fragment was lysed in 0.5 mL of lysis buffer using a FastPrep-24 homogenizer and Lysing Matrix A (MP Biomedicals, Solon, Ohio, USA) and lysates clarified by centrifugation. Equal amounts of proteins were resolved by SDS-PAGE and immunoblotted with indicated antibodies. The antigen-antibody complex was visualized and quantitated using an Odyssey system (LI-COR, Lincoln, Nebr., USA).

[3] = test system: HEL92.1.7 cells (JAK2V617F); assay: HEL92.1.7 disseminated (orthotopic) leukemia survival model; format: in vivo
Method: Beginning 1 day after tumor cell implantation, ganetespib was i.v. dosed at its HNSTD (25 mg/kg) on a five-times per week schedule for 3 weeks through day 19 ([…]). *P<0.0001; 2-sided log-rank test.
Eight-week-old female immunodeficient CB-17/Icr-Prkdcscid/Crl (SCID) mice (Charles River Laboratories, Wilmington, Mass.) were maintained in a pathogen-free environment, and all in vivo procedures were approved by the Synta Pharmaceuticals Corp. Institutional Animal Care and Use Committee. For the MV4-11 model, tumor cells were subcutaneously implanted in SCID mice as previously described (34). Tumor volumes (V) were calculated by caliper measurements of the width (W), length (L), and thickness (T) of each tumor using the formula: V=0.5236 (LWT).
For the HEL92.1.7 model, SCID mice were i.v. injected via the tail vein with 5×10^6 cells in phosphate-buffered saline (PBS) on day 0. Implanted animals were then randomized into groups of 10 and i.v. dosed via the tail vein at 10 mL/kg body weight with either vehicle or ganetespib formulated in 10/18 DRD. Animals were weighed daily and removed from the study at the first sign of hind limb paralysis, which occurred in 100% of vehicle-treated animals. Median overall survival was estimated using the Kaplan-Meier method and the log-rank test (2-sided) for statistical significance. Tumor cells were identified as either CD44- or CD54-positive cells within the CD45-negative population. Spinal column tumor burden was determined by quantitative image analysis with ImageJ software (Wayne Rasband, National Institute of Mental Health) of hematoxylin and eosin stained tissue sections.
(§4) For both models, studies were conducted at the highest non-severely toxic doses (NHSTDs) of 150 mg/kg ganetespib one-time per week or 25 mg/kg ganetespib 5×/week for 3 weeks based on prior tolerability studies conducted in non-tumor bearing mice.

[4] = test system: phospho-STAT5 and Cdk1 in MV4-11 tumors; assay: Pharmacodynamic analysis of MV4-11 xenograft tumors (western blot); format: in vivo, SCID mice
Method: SCID mice bearing MV4-11 tumors (n=4 mice/group) were treated with vehicle or ganetespib at either 25 mg/kg or 150 mg/kg at the indicated time points between 6 h and 144 h (6 days). Tumors were resected and the levels of p-STATS, Cdk1, Hsp70 and GAPDH were determined by western blot.
as §3
To determine whether these tumor responses correlated with target modulation in vivo, additional mice bearing MV4-11 xenografts were treated with a single dose of vehicle alone or ganetespib at 25 or 150 mg/kg. Tumors were harvested between 6 and 144 hours later and pharmacodynamic analysis was performed by examining the expression levels of phospho-STAT5, Cdk1 and Hsp70 (FIG. 17). In accord with the in vivo tumor growth data, dose-dependent effects on the duration of target inhibition within the tumors were observed. […] While the relatively quick recovery of STAT5 activation should have allowed the tumor to restart growth, the more durable suppression of the cell cycle regulators appeared to have kept the growth of the tumors arrested until the next drug dosing.

[5] = Tolerability studies in non-tumor bearing mice; format: in vivo; conditions: i.v.
Method: as §4

SMILES: CC(C)c1cc(-c2nnc(O)n2-c2ccc3c(ccn3C)c2)c(O)cc1O [ganetespib, 3-(2,4-dihydroxy-5-isopropyl-phenyl)-4-(1-methyl-indol-5-yl)-5-hydroxy-[1,2,4] triazole]
- induction of cell death (DU145 cells): potent inducer of cell death
- fold more potent than 17-AAG, cell viability (HEL92.1.7 cells; 72 h): greater than 100 fold
- IC50 (HEL92.1.7 cells; Homo sapiens, HEL 92.1.7, 72 h, Alamar blue, read-out: IC50, loss of cellular viability): 20 nM
- sensitivity of cells in vitro (MV4-11 cells): highly sensitive
- fold more potent than 17-AAG, cell viability (SET-2 cells): greater than 100 fold
- potency compared with 17-AAG, cell viability ([1]; each of the lines tested): more potent than the ansamycin Hsp90 inhibitor 17-AAG
- potency in reducing cellular viability ([1]; group of human hematological and solid tumor cell lines, 72 h): low nanomolar potency
- JAK2 and phospho-AKT protein levels [2]: targeted loss of JAK2 and phospho-AKT protein levels
- duration of STAT signaling suppression compared to P6 [2]: suppressed STAT signaling longer
- potency compared to P6, JAK/STAT inhibitory activity [2]: at least four-fold more potent
- JAK2 dependent signaling (phospho-STAT3, phospho-STAT5, ERK signaling) ([2]; 250 nM ganetespib or 1000 nM P6): blocked JAK2 dependent signaling
- tumor cell burden in bone marrow and spinal cord (histological analysis) ([3]; 25 mg/kg i.v. 5×/week): dramatically decreased tumor cell burden
- median overall survival ([3]; 25 mg/kg i.v. 5×/week through day 19, SCID mice): 76.5 days
- body weight (tolerability) ([3]; 25 mg/kg i.v. 5×/week, after 3 weeks of dosing): no significant loss of body weight
- time by which STAT5 activity recovered in tumors ([4]; single 25 mg/kg dose): ≤ 24 h
- time of loss of Cdk1 in tumors ([4]; single 25 mg/kg dose): 24 h
- time through which Cdk1 expression remained suppressed in tumors ([4]; single 25 mg/kg dose): at least 48 hours
- time to potent inhibition of STAT5 activity in tumors ([4]; single 25 mg/kg dose): ≤ 6 h
- duration of repressed STAT5 activation and suppressed Cdk1 expression in tumors ([4]; single 150 mg/kg dose): more than three days
- highest non-severely toxic dose ([5]; 5×/week for 3 weeks): 25 mg/kg
- highest non-severely toxic dose ([5]; one-time per week for 3 weeks): 150 mg/kg
